Data set [1] deals with T1, Presenilin-1 (Homo sapiens, UniProt P49768). In words: Modulation of human gamma-secretase presenilin-1 subunit expressed in CHO cells coexpressing human APP assessed as decrease in amyloid beta 40 generation after 24 hrs by ELISA. In kind it is cell-based.
In data set [2] the target is T1, Presenilin-1. In words: Modulation of human gamma-secretase presenilin-1 subunit expressed in CHO cells coexpressing human APP assessed as increase in amyloid beta 38 generation at EC50 after 24 hrs by ELISA relative to control. In kind it is cell-based. For orientation: ELISA stands for enzyme-linked immunosorbent assay.
The target of data set [3] is T1, Presenilin-1. The experiment in a line: Modulation of human gamma-secretase presenilin-1 subunit expressed in CHO cells coexpressing human APP assessed as decrease in amyloid beta 42 generation after 24 hrs by ELISA. The data set is classed as cell-based.
A short description of data set [4]: Micelle formation by compound at 5 to 100 uM by dynamic light scattering assay. In kind it is physicochemical.
In data set [5] the target is T1, Presenilin-1. In words: Modulation of human gamma-secretase presenilin-1 subunit expressed in CHO cells coexpressing human APP assessed as increase in amyloid beta 38 generation after 24 hrs by ELISA. In kind it is cell-based.
Data set [6] in a line: Micelle aggregation by compound at 5 to 100 uM by dynamic light scattering assay. In kind it is physicochemical.
The nature of data set [7]: Micelle formation by compound at 100 uM by dynamic light scattering assay. In kind it is physicochemical.
Data set [8] in a line: Micelle aggregation by compound at 100 uM by dynamic light scattering assay. In kind it is physicochemical.

With `Cc1c(C)c2c(c(C)c1OCC(=O)O)CCC(C)(CCCC(C)CCCC(C)CCCC(C)C)O2` (stereo not drawn), the IC50 in data set [1] was 26 µM; in data set [3] (read-out: IC50) it was 12 µM; in data set [3] (read-out: pIC50 (converted)), 31.6 µM. The results for the Activity in data set [2], in data set [4] and in data set [6] were 55%, “Not Active” and “Not Active”, respectively. In addition, in data set [5], the EC50 (usually the concentration needed to bring the measured effect to its halfway point) turned out to be 4 µM.
For `CCCCCCCCCCCCCCOC(=O)C1(C)CCc2c(C)c(OCC(=O)O)c(C)c(C)c2O1` (stereo not drawn), the IC50 in data set [1] was 34 µM; in data set [3] (read-out: IC50), 22 µM; in data set [3] (read-out: pIC50 (converted)), 39.8 µM. For the same compound, the Activity in data set [2] is 95%; in data set [4], “Not Active”; in data set [6], “Not Active”. In addition, the EC50 in data set [5] was determined as 6 µM.
With `CC(C)=CCC/C(C)=C/CC/C(C)=C/COC(=O)C1(C)CCc2c(C)c(OCC(=O)O)c(C)c(C)c2O1` (stereo not drawn), the results for the IC50 in data set [1], in data set [3] (read-out: IC50) and in data set [3] (read-out: pIC50 (converted)) were 25 µM, 27 µM and 39.8 µM, respectively. Also, the Activity in data set [2] is 35%; in data set [4], “Not Active”; in data set [6], “Not Active”. For the same compound, the 50% effective concentration (EC50) in data set [5] came out at 1 µM.
For the compound `C/C(=C\COC(=O)C1(C)CCc2c(C)c(OCC(=O)O)c(C)c(C)c2O1)CCC[C@H](C)CCC[C@H](C)CCCC(C)C` (stereo partly drawn), the values for the IC50 in data set [1], in data set [3] (read-out: IC50) and in data set [3] (read-out: pIC50 (converted)) were 36 µM, 24 µM and 39.8 µM, respectively. The values for the Activity in data set [2], in data set [4] and in data set [6] were 135%, “Not Active” and “Not Active”, respectively. Moreover, in data set [5], the half-maximal effective concentration (EC50) stood at 13 µM.
Consider `CCCCCCCCCCCCCCOc1c(C)c(C)c2c(c1C)CCC(C)(C(=O)O)O2` (stereo not drawn), for which the IC50 in data set [1] was 29 µM; in data set [3] (read-out: IC50), 14 µM; in data set [3] (read-out: pIC50 (converted)) it was 31.6 µM. Moreover, the Activity in data set [2] was 40%; in data set [4], “Not Active”; in data set [6] it was “Not Active”. The EC50 in data set [5] came out at 9 µM.
Turning to `Cc1c(C)c2c(c(C)c1O)CCC(C)(CCCC(C)CCCC(C)CCCC(C)C)O2` (racemic) [alpha-TOCHOPHEROL], the IC50 in data set [1] and in data set [3] (read-out: IC50) was > 100 µM each time. Besides, the EC50 in data set [5] is > 100 µM.
With `CCCCCCCCOc1c(C)c(C)c2c(c1C)CCC(C)(C(=O)O)O2` (stereo not drawn), the figures for the IC50 in data set [1], in data set [3] (read-out: IC50) and in data set [3] (read-out: pIC50 (converted)) were > 50 µM, 57 µM and 25.1 µM, respectively. Further, the Activity entry in data set [4] and in data set [6] was “Not Active” each time. In data set [5], the EC50 is > 50 µM.
In the case of `C/C(=C\COc1c(C)c(C)c2c(c1C)CCC(C)(C(=O)O)O2)CCC[C@H](C)CCC[C@H](C)CCCC(C)C` (stereo partly drawn), the IC50 in data set [1] is 42 µM; in data set [3] (read-out: IC50), 26 µM; in data set [3] (read-out: pIC50 (converted)), 39.8 µM. For the same compound, the Activity was 35% in data set [2], “Not Active” in data set [4] and “Not Active” in data set [6]. In addition, the concentration for a half-maximal effect (EC50) in data set [5] was 10 µM.
Consider `CCCCCCCCCCCOc1c(C)c(C)c2c(c1C)CCC(C)(C(=O)O)O2` (stereo not drawn), for which the figures for the IC50 in data set [1], in data set [3] (read-out: IC50) and in data set [3] (read-out: pIC50 (converted)) were > 50 µM, 28 µM and 31.6 µM, respectively. In addition, the Activity in data set [2] is 65%; in data set [7], “Active”; in data set [8], “Active”; in data set [4], “Not Active”; in data set [6], “Not Active”. In addition, in data set [5], the EC50 is 10 µM.
Turning to `CCCCCCCCCCCOC(=O)C1(C)CCc2c(C)c(OCC(=O)O)c(C)c(C)c2O1` (stereo not drawn), the IC50 in data set [1] is 23 µM; in data set [3] (read-out: IC50), 12 µM; in data set [3] (read-out: pIC50 (converted)), 31.6 µM. Also, the figures for the Activity in data set [2], in data set [4] and in data set [6] were 100%, “Not Active” and “Not Active”, respectively. The EC50 in data set [5] worked out at 5 µM.
On to `COC(=O)COc1c(C)c(C)c2c(c1C)CCC(C)(CCCC(C)CCCC(C)CCCC(C)C)O2` (stereo not drawn), for which the IC50 in data set [1] and in data set [3] (read-out: IC50) was > 100 µM in each case. Also, in data set [5], the 50% effective concentration (EC50) was > 100 µM.
With `CC(C)=CCC/C(C)=C/CC/C(C)=C/Cn1c2ccc(Cl)cc2c2ccc(C(C)C(=O)O)cc21` (stereo not drawn), the IC50 is 26 µM in data set [1], 4 µM in data set [3] (read-out: IC50) and 31.6 µM in data set [3] (read-out: pIC50 (converted)). The Activity in data set [2] is 80%; in data set [4], “Not Active”; in data set [6] it was “Not Active”. The EC50 in data set [5] came out at 2 µM.
As to `C/C(=C\Cn1c2ccc(Cl)cc2c2ccc(C(C)C(=O)O)cc21)CCC[C@H](C)CCC[C@H](C)CCCC(C)C` (stereo partly drawn), the IC50 was > 50 µM in data set [1], 23 µM in data set [3] (read-out: IC50) and 39.8 µM in data set [3] (read-out: pIC50 (converted)). In addition, the Activity entry in data set [4] and in data set [6] was “Not Active” throughout. Further, in data set [5], the concentration giving a half-maximal response (EC50) is > 50 µM.
`CC(C)=CCC/C(C)=C/CC/C(C)=C/COc1c(C)c(C)c2c(c1C)CCC(C)(C(=O)O)O2` (stereo not drawn): the IC50 in data set [1] is 39 µM; in data set [3] (read-out: IC50), 28 µM; in data set [3] (read-out: pIC50 (converted)) it was 31.6 µM. Besides, the Activity in data set [2] is 35%; in data set [4] it was “Not Active”; in data set [6], “Not Active”. The EC50 in data set [5] amounted to 8 µM.
Turning to `CCCCCCCCOC(=O)C1(C)CCc2c(C)c(OCC(=O)O)c(C)c(C)c2O1` (stereo not drawn), the IC50 in data set [1] was 42 µM; in data set [3] (read-out: IC50), 35 µM. The Activity in data set [2] was 60%; in data set [4] it was “Not Active”; in data set [6], “Not Active”. Besides, in data set [5], the EC50 came to 11 µM.
Take `Cc1c(C)c2c(c(C)c1OCC(=O)O)CCC(C)(CCC[C@H](C)CCC[C@H](C)CCCC(C)C)O2` (stereo partly drawn): the IC50 in data set [1] was 24 µM; in data set [3] (read-out: IC50) it was 11 µM; in data set [3] (read-out: pIC50 (converted)), 31.6 µM. The values for the Activity in data set [2], in data set [4] and in data set [6] were 55%, “Not Active” and “Not Active”, respectively. Further, the EC50 in data set [5] was found to be 6 µM.
